{"source": "patent US10286084B2", "about": "“Compositions for the inactivation of virus replication and methods of making and using the same” (priority 2014, dated 2019)", "test_system": "retinoblastoma (Rb) protein", "assay": "Western blot and pRB quantification in transfected HeLa cells", "type": "cell-based, human", "method": "Phenotypic analysis of RGNs in HeLa was performed using the Fugene6 transfection reagent as per the manufacturer's protocol. Cells were plated at 2.5×10^5 cells per well in 6-well plates and transfected with a 3 to 1 ratio of RGN expression vector to pLCE (a GFP-expressing plasmid included to determine transfection efficiency). SiHa cells were transfected with HPV-16-specific RGN expression vectors using Lipofectamine3000 (Clontech) using the manufacturer's protocol. Cells were then harvested and lysed in SDS/β-mercaptoethanol protein lysis buffer 48 hours post transfection. Lysates were subjected to electrophoresis on 4-20% SDS-polyacrylamide gels (Bio-Rad) and transferred to nitrocellulose membranes. The membranes were then probed in 5% milk-PBS-T (PBS, 0.1% Tween 20, 0.5% bovine serum albumin) with the following antibodies: anti-Flag (Sigma F1804), a rabbit Rev polyclonal antiserum (Malim et al., 1989), anti-β-actin (Santa Cruz S.C.-47778), anti-p53 (Santa Cruz S.C.-126), anti-p21 (Santa Cruz S.C.-397), and anti-Rb (BD Pharmigen 554136). The membranes were washed in PBS-T, incubated with a species-specific secondary antibody, and then washed again in PBS-T. The membranes were incubated with Western Bright Sirius Western blot detection kit (Advansta) and signals captured using GeneSnap and quantified using GeneTools (Syngene). […]", "data": [{"substance": "E7 sgRNA1: Spy Cas9 sgRNA for HPV-18 E7, GGAGCAATTAAGCGACTCAG; SEQ ID NO: 10 (expressed or natural sequence)", "values": [{"measurement": "increase in Rb expression normalized to β-actin internal control", "setting": "Spy Cas9, 48 h post-transfection", "result": "1.4±0.03", "unit": "fold"}, {"measurement": "increase in Rb expression over the control, decrease of Cas9 expression taken into account", "setting": "Spy Cas9, p=0.011", "result": "5.54±1.42", "unit": "fold"}]}]}
